The NIST ThermoML archive (doi:10.1016/j.jct.2006.08.009)

Experiment: mn = molality of the nth substance listed, in mol/kg
Settings: 350 kPa, Liquid; for apparent molar heat capacity: Extra sensitive DSC

OC[C@@H](O)[C@H](O)[C@@H](O)CO [xylitol] + O
Settings | apparent molar heat capacity [J/K/mol] | mass density [kg/m3]
278.15 K, m1 = 0.0499 | 278.9 | 1002.96
278.15 K, m1 = 0.1 | 288.4 | 1005.41
278.15 K, m1 = 0.4001 | 293.3 | 1020.49
278.15 K, m1 = 0.7496 | 297.2 | 1036.91
278.15 K, m1 = 1.001 | 299.5 | 1047.83
278.15 K, m1 = 1.498 | 303.4 | 1067.95
278.15 K, m1 = 1.997 | 301.8 | 1086.45
278.15 K, m1 = 2.701 | 311.1 | 1109.42
283.15 K, m1 = 0.0499 | 296.8 | 1002.63
283.15 K, m1 = 0.1 | 306.1 | 1005.03
283.15 K, m1 = 0.4001 | 310.2 | 1019.9
283.15 K, m1 = 0.7496 | 313.4 | 1036.06
283.15 K, m1 = 1.001 | 315.6 | 1046.82
283.15 K, m1 = 1.498 | 318.5 | 1066.63
283.15 K, m1 = 1.997 | 317.4 | 1084.9
283.15 K, m1 = 2.701 | 325 | 1107.65
288.15 K, m1 = 0.0499 | 310.8 | 1001.96
288.15 K, m1 = 0.1 | 319.8 | 1004.34
288.15 K, m1 = 0.4001 | 323.4 | 1019.04
288.15 K, m1 = 0.7496 | 326.2 | 1035
288.15 K, m1 = 1.001 | 328.1 | 1045.65
288.15 K, m1 = 1.498 | 330.3 | 1065.25
288.15 K, m1 = 1.997 | 328.7 | 1083.35
288.15 K, m1 = 2.701 | 335.7 | 1105.88
293.15 K, m1 = 0.0499 | 322.5 | –
293.15 K, m1 = 0.1 | 331.4 | –
293.15 K, m1 = 0.4001 | 334.8 | –
293.15 K, m1 = 0.7496 | 337.1 | –
293.15 K, m1 = 1.001 | 338.8 | –
293.15 K, m1 = 1.498 | 340.5 | –
293.15 K, m1 = 1.997 | 338.3 | –
293.15 K, m1 = 2.701 | 344.9 | –
298.15 K, m1 = 0.0499 | 332.9 | 999.86
298.15 K, m1 = 0.1 | 341.6 | 1002.2
298.15 K, m1 = 0.4001 | 344.5 | 1016.61
298.15 K, m1 = 0.7496 | 346.5 | 1032.27
298.15 K, m1 = 1.001 | 347.8 | 1042.69
298.15 K, m1 = 1.498 | 349.2 | 1061.92
298.15 K, m1 = 1.997 | 346.7 | 1079.8
298.15 K, m1 = 2.701 | 352.9 | 1101.9
303.15 K, m1 = 0.0499 | 342 | –
303.15 K, m1 = 0.1 | 350.4 | –
303.15 K, m1 = 0.4001 | 352.9 | –
303.15 K, m1 = 0.7496 | 354.6 | –
303.15 K, m1 = 1.001 | 355.8 | –
303.15 K, m1 = 1.498 | 356.9 | –
303.15 K, m1 = 1.997 | 354 | –
303.15 K, m1 = 2.701 | 359.9 | –
308.15 K, m1 = 0.0499 | 349.7 | 996.7
308.15 K, m1 = 0.1 | 358.1 | 999
308.15 K, m1 = 0.4001 | 360.4 | 1013.2
308.15 K, m1 = 0.7496 | 361.7 | 1028.7
308.15 K, m1 = 1.001 | 362.8 | 1038.8
308.15 K, m1 = 1.498 | 363.6 | 1057.9
308.15 K, m1 = 1.997 | 360.6 | 1075.2
308.15 K, m1 = 2.701 | 366.2 | 1097.2
313.15 K, m1 = 0.0499 | 356.5 | –
313.15 K, m1 = 0.1 | 365 | –
313.15 K, m1 = 0.4001 | 367 | –
313.15 K, m1 = 0.7496 | 368.1 | –
313.15 K, m1 = 1.001 | 369.1 | –
313.15 K, m1 = 1.498 | 369.7 | –
313.15 K, m1 = 1.997 | 366.6 | –
313.15 K, m1 = 2.701 | 371.9 | –
318.15 K, m1 = 0.0499 | 362.5 | 992.82
318.15 K, m1 = 0.1 | 370.9 | 995.17
318.15 K, m1 = 0.4001 | 372.9 | 1009.11
318.15 K, m1 = 0.7496 | 373.8 | 1024.37
318.15 K, m1 = 1.001 | 374.7 | 1034.54
318.15 K, m1 = 1.498 | 375.2 | 1053.25
318.15 K, m1 = 1.997 | 372 | 1070.4
318.15 K, m1 = 2.701 | 377.1 | 1092.04
323.15 K, m1 = 0.0499 | 368.1 | –
323.15 K, m1 = 0.1 | 376.3 | –
323.15 K, m1 = 0.4001 | 378.3 | –
323.15 K, m1 = 0.7496 | 379.1 | –
323.15 K, m1 = 1.001 | 379.8 | –
323.15 K, m1 = 1.498 | 380.2 | –
323.15 K, m1 = 1.997 | 377 | –
323.15 K, m1 = 2.701 | 381.9 | –
328.15 K, m1 = 0.0499 | 372.9 | 988.29
328.15 K, m1 = 0.1 | 381.3 | 990.59
328.15 K, m1 = 0.4001 | 383.2 | 1004.39
328.15 K, m1 = 0.7496 | 383.8 | 1019.46
328.15 K, m1 = 1.001 | 384.5 | 1029.53
328.15 K, m1 = 1.498 | 384.7 | 1048.03
328.15 K, m1 = 1.997 | 381.6 | 1064.94
328.15 K, m1 = 2.701 | 386.3 | 1086.4
333.15 K, m1 = 0.0499 | 377.6 | –
333.15 K, m1 = 0.1 | 385.7 | –
333.15 K, m1 = 0.4001 | 387.6 | –
333.15 K, m1 = 0.7496 | 388.2 | –
333.15 K, m1 = 1.001 | 388.8 | –
333.15 K, m1 = 1.498 | 389 | –
333.15 K, m1 = 1.997 | 385.9 | –
333.15 K, m1 = 2.701 | 390.4 | –
338.15 K, m1 = 0.0499 | 382 | 983.12
338.15 K, m1 = 0.1 | 389.8 | 985.45
338.15 K, m1 = 0.4001 | 391.8 | 999.12
338.15 K, m1 = 0.7496 | 392.3 | 1014.03
338.15 K, m1 = 1.001 | 392.9 | 1023.97
338.15 K, m1 = 1.498 | 392.9 | 1042.32
338.15 K, m1 = 1.997 | 389.9 | 1059.03
338.15 K, m1 = 2.701 | 394.2 | 1080.39
343.15 K, m1 = 0.0499 | 385 | –
343.15 K, m1 = 0.1 | 393.6 | –
343.15 K, m1 = 0.4001 | 395.5 | –
343.15 K, m1 = 0.7496 | 395.9 | –
343.15 K, m1 = 1.001 | 396.5 | –
343.15 K, m1 = 1.498 | 396.5 | –
343.15 K, m1 = 1.997 | 393.5 | –
343.15 K, m1 = 2.701 | 397.7 | –
348.15 K, m1 = 0.0499 | 389 | 977.37
348.15 K, m1 = 0.1 | 396.9 | 979.76
348.15 K, m1 = 0.4001 | 398.9 | 993.29
348.15 K, m1 = 0.7496 | 399.3 | 1008.12
348.15 K, m1 = 1.001 | 399.9 | 1017.97
348.15 K, m1 = 1.498 | 399.9 | 1036.22
348.15 K, m1 = 1.997 | 397 | 1052.82
348.15 K, m1 = 2.701 | 400.9 | 1074.02
353.15 K, m1 = 0.0499 | 392 | –
353.15 K, m1 = 0.1 | 400 | –
353.15 K, m1 = 0.4001 | 401.9 | –
353.15 K, m1 = 0.7496 | 402.3 | –
353.15 K, m1 = 1.001 | 402.9 | –
353.15 K, m1 = 1.498 | 402.9 | –
353.15 K, m1 = 1.997 | 400.2 | –
353.15 K, m1 = 2.701 | 403.9 | –
358.15 K, m1 = 0.0499 | 394 | 971.43
358.15 K, m1 = 0.1 | 402.5 | 973.65
358.15 K, m1 = 0.4001 | 404.6 | 986.64
358.15 K, m1 = 0.7496 | 404.9 | 1001.31
358.15 K, m1 = 1.001 | 405.5 | 1011.25
358.15 K, m1 = 1.498 | 405.5 | 1029.33
358.15 K, m1 = 1.997 | 403.2 | 1045.42
358.15 K, m1 = 2.701 | 406.4 | 1066.46
363.15 K, m1 = 0.0499 | 396 | –
363.15 K, m1 = 0.1 | 404 | –
363.15 K, m1 = 0.4001 | 405.9 | –
363.15 K, m1 = 0.7496 | 406.2 | –
363.15 K, m1 = 1.001 | 406.8 | –
363.15 K, m1 = 1.498 | 406.7 | –
363.15 K, m1 = 1.997 | 405.9 | –
363.15 K, m1 = 2.701 | 407.6 | –
368.15 K, m1 = 0.0499 | – | 964.45
368.15 K, m1 = 0.1 | – | 966.77
368.15 K, m1 = 0.4001 | – | 980.22
368.15 K, m1 = 0.7496 | – | 994.89
368.15 K, m1 = 1.001 | – | 1004.67
368.15 K, m1 = 1.498 | – | 1022.74
368.15 K, m1 = 1.997 | – | 1039.27
368.15 K, m1 = 2.701 | – | 1060.25
